Laboratory results taken from patent US10556888B2, “Pyrazole compounds or salts thereof, preparation methods therefor, herbicidal compositions and use thereof” (QINGDAO KINGAGROOT CHEMICAL COMPOUNDS CO., LTD, priority 2015, dated 2020).

Assays:
[1] = tested on: Monocotyledonous and dicotyledonous weed; test: Post-emergence test experiment, weed control effect (Table 2); type: in vivo; design: key to weed control effect, Setaria viridis (level) / weed control effect, Rorippa indica (level) / weed control effect, Abutilon theophrasti (level) / weed control effect, Echinochloa crus-galli (level) / weed control effect, Digitaria sanguinalis (level): Level 10: completely dead; Level 9: above 90% growth inhibition rate; Level 8: above 80% growth inhibition rate; Level 7: above 70% growth inhibition rate; Level 6: above 60% growth inhibition rate; Level 5: above 50% growth inhibition rate; Level 4: above 30% growth inhibition rate; Level 3: above 20% growth inhibition rate; Level 2: above 10% growth inhibition rate; Level 1: above 1-10% growth inhibition rate; Level 0: no effect; details: 30 g/ha, 3 weeks after spraying, greenhouse
Summary of the method: (§1)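 Compounds, dissolved in acetone, mixed with Tween 80 and diluted in water, were sprayed post-emergence onto greenhouse-grown weeds and crops at the 2-3 leaf stage (2-3 weeks post-sowing). Plants then grown 3 more weeks in the greenhouse before evaluation.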

[2] = tested on: main crop (wheat, corn, rice, soybean, cotton, oilseed, millet and sorghum); test: Post-emergence test experiment, main crops (Table 2); type: in vivo; design: key: Level 10: completely dead; Level 9: above 90% growth inhibition rate; Level 8: above 80% growth inhibition rate; Level 7: above 70% growth inhibition rate; Level 6: above 60% growth inhibition rate; Level 5: above 50% growth inhibition rate; Level 4: above 30% growth inhibition rate; Level 3: above 20% growth inhibition rate; Level 2: above 10% growth inhibition rate; Level 1: above 1-10% growth inhibition rate; Level 0: no effect; details: 30 g/ha, 3 weeks after spraying, greenhouse
Summary of the method: as §1

Compound | weed control effect, Abutilon theophrasti (level) [1] | weed control effect, Bidens pilosa (level) [1] | weed control effect, Digitaria sanguinalis (level) [1] | weed control effect, Echinochloa crus-galli (level) [1] | weed control effect, Rorippa indica (level) [1] | weed control effect, Setaria viridis (level) [1] | effect on crop, corn (level) [2] | effect on crop, rice (level) [2] | effect on crop, wheat (level) [2]
C#CCOCc1c(S(C)(=O)=O)ccc(C(=O)c2c(C3CC3)nn(C)c2OC(=O)c2cn(C)nc2C)c1Cl [Compound 47] | 7 (Level 7: above 70% growth inhibition rate) | 7 (Level 7: above 70% growth inhibition rate) | 7 (Level 7: above 70% growth inhibition rate) | 10 | 10 | 9 (Level 9: above 90% growth inhibition rate) | 0 | 3 (Level 3: above 20% growth inhibition rate) | 0
Cc1nn(C)cc1C(=O)Oc1c(C(=O)c2ccc(S(C)(=O)=O)c(COCC(F)(F)C(F)F)c2Cl)c(C2CC2)nn1C [Compound 48] | 7 (Level 7: above 70% growth inhibition rate) | 7 (Level 7: above 70% growth inhibition rate) | 7 (Level 7: above 70% growth inhibition rate) | 10 | 10 | 9 (Level 9: above 90% growth inhibition rate) | 0 | 3 (Level 3: above 20% growth inhibition rate) | 0
Cc1nn(C)cc1C(=O)Oc1c(C(=O)c2ccc(S(C)(=O)=O)c(COCC(F)(F)F)c2Cl)c(C2CC2)nn1C [Compound 49] | 7 (Level 7: above 70% growth inhibition rate) | 7 (Level 7: above 70% growth inhibition rate) | 7 (Level 7: above 70% growth inhibition rate) | 10 | 10 | 9 (Level 9: above 90% growth inhibition rate) | 0 | 3 (Level 3: above 20% growth inhibition rate) | 0
Cc1nn(C)cc1C(=O)Oc1c(C(=O)c2ccc(S(C)(=O)=O)c(COCC(F)F)c2Cl)c(C2CC2)nn1C [Compound 50] | 6 (Level 6: above 60% growth inhibition rate) | 7 (Level 7: above 70% growth inhibition rate) | 8 (Level 8: above 80% growth inhibition rate) | 10 | 10 | 9 (Level 9: above 90% growth inhibition rate) | 0 | 3 (Level 3: above 20% growth inhibition rate) | 0
COCCCOCc1c(S(C)(=O)=O)ccc(C(=O)c2c(C3CC3)nn(C)c2OC(=O)c2cn(C)nc2C)c1Cl [Compound 52] | 7 (Level 7: above 70% growth inhibition rate) | 7 (Level 7: above 70% growth inhibition rate) | 7 (Level 7: above 70% growth inhibition rate) | 10 | 10 | 6 (Level 6: above 60% growth inhibition rate) | 1 (Level 1: above 1-10% growth inhibition rate) | 3 (Level 3: above 20% growth inhibition rate) | 0
COCCCOCc1c(S(C)(=O)=O)ccc(C(=O)c2cnn(C)c2OC(=O)c2cn(C)nc2C)c1Cl [Compound 53] | 7 (Level 7: above 70% growth inhibition rate) | 7 (Level 7: above 70% growth inhibition rate) | 8 (Level 8: above 80% growth inhibition rate) | 10 | 10 | 6 (Level 6: above 60% growth inhibition rate) | 1 (Level 1: above 1-10% growth inhibition rate) | 3 (Level 3: above 20% growth inhibition rate) | 0
CCOc1c(C(=O)Oc2c(C(=O)c3ccc(S(C)(=O)=O)c(COCC(F)(F)F)c3Cl)cnn2C)cnn1C [Compound 54] | 7 (Level 7: above 70% growth inhibition rate) | 7 (Level 7: above 70% growth inhibition rate) | 7 (Level 7: above 70% growth inhibition rate) | 10 | 10 | 10 | 1 (Level 1: above 1-10% growth inhibition rate) | 3 (Level 3: above 20% growth inhibition rate) | 0
CCOc1c(C(=O)Oc2c(C(=O)c3ccc(S(C)(=O)=O)c(COCC(F)(F)F)c3Cl)c(C)nn2C)cnn1C [Compound 55] | 7 (Level 7: above 70% growth inhibition rate) | 7 (Level 7: above 70% growth inhibition rate) | 10 | 10 | 10 | 10 | 2 (Level 2: above 10% growth inhibition rate) | 3 (Level 3: above 20% growth inhibition rate) | 0
C#CCOCc1c(S(C)(=O)=O)ccc(C(=O)c2c(C)nn(C)c2OC(=O)c2cnn(C)c2OCC)c1Cl [Compound 56] | 7 (Level 7: above 70% growth inhibition rate) | 7 (Level 7: above 70% growth inhibition rate) | 7 (Level 7: above 70% growth inhibition rate) | 10 | 10 | 9 (Level 9: above 90% growth inhibition rate) | 0 | 3 (Level 3: above 20% growth inhibition rate) | 0
CCOc1c(C(=O)Oc2c(C(=O)c3ccc(S(C)(=O)=O)c(COCC(F)F)c3Cl)cnn2C)cnn1C [Compound 57] | 7 (Level 7: above 70% growth inhibition rate) | 7 (Level 7: above 70% growth inhibition rate) | 7 (Level 7: above 70% growth inhibition rate) | 10 | 10 | 9 (Level 9: above 90% growth inhibition rate) | 0 | 3 (Level 3: above 20% growth inhibition rate) | 0
